Experiments:
SOD1-G93A mice [1] = tested on: SOD1-G93A mice
Protocol: Drug Treatment and Survival Analysis:
Baseline and study measures were recorded for weight, grip strength, food consumption, and survival. Determination of end-stage was the inability for a mouse to right itself after 30 seconds of being placed on its side.

liver of SOD1-G93A mice = conditions: mouse, in vivo
Protocol: Periodic Acid Schiff Staining:
Saline perfused liver was postfixed with 4% paraformaldehyde for 24 h followed by 24 h incubation in 30% sucrose solution, embedded in OCT solution, and stored at −80° C. until sectioned (10 μm thickness). Sections were hydrated with water, immersed in PAS solutions (Sigma; 395) for 5 min at room temperature, and washed in water. Sections were immersed for 4 min in Schiff's reagent and washed in water for 5 min. Sections were counterstained with hematoxylin solution, dehydrated in ethanol and HemoD solution, mounted, and imaged.

SOD1-G93A mice [2] = assay: Compound muscle action potential (CMAP) recordings; assay type: in vivo; conditions: 140 day SOD1-G93A mice
Excerpt: Compound Muscle Action Potential (CMAP) Recordings:
Mice were anesthetized with 1% isoflurane and 0.5% oxygen. Following dermatomoty, stainless steel-stimulating needle electrodes were inserted at the sciatic notch, near the sciatic nerve. A ground electrode was placed subcutaneously in the back, and a reference electrode placed subcutaneously at the ankle. The sciatic nerve was stimulated (0.2 ms duration; 1.6 mV amplitude) and the response recorded via a needle electrode inserted into the plantar muscle in the medial half of the foot, following the line connecting the first and fifth tarsal/metatarsal joints. Data was collected using ADI Powerlab 8/30 stimulator and BioAMP amplifier (ADInstruments, Colorado Springs, Colo.) and analyzed using Scope 3.5.6 (ADInstruments). The compound muscle action potential (M-wave) amplitude was measured from baseline to peak. Data was averaged between left and right hind limb traces.

ALS = ALS patients; cited from earlier work

## COc1cc2c(cc1OC)CN(CCc1ccc(NC(=O)c3cccc4c(=O)c5cccc(OC)c5[nH]c34)cc1)CC2 [elacridar, N-[4-[2-(3,4-dihydro-6,7-dimethoxy-2(1H)-isoquinolinyl)ethyl]phenyl]-9,10-dihydro-5-methoxy-9-oxo-4-acridine carboxamide]
SOD1-G93A mice [1]; chronic elacridar alone, beginning at disease onset, SOD1-G93A mice
  effect on disease progression / survival: did not alter disease progression
SOD1-G93A mice [1]; mouse, in vivo
  safety of chronic treatment: safe
Liver of SOD1-G93A mice
  liver toxicity (periodic acid Schiff staining): did not cause liver toxicity

## Nc1nc2ccc(OC(F)(F)F)cc2s1 [riluzole, 6-(trifluoromethoxy)benzothiazol-2-amine]
SOD1-G93A mice [2]
  CMAP peak amplitude: 5.00±0.67 mV
ALS
  slowing of disease progression: 3-9 months

— patent publication US11369596B2, “Methods of treating a neurodegenerative disease in a mammal in need thereof” (Thomas Jefferson University, priority 2013, dated 2022)
